Converted amounts (≈) assume the structure as drawn. Where two headings read alike, the source gives them in different places.
How the values were obtained:
[1] = Margin of exposure versus NOEL (estimated total daily dose to a child in a swimming pool); conditions: for Margin of Exposure vs NOEL: agricultural fungicides, Table B; for Margin of Exposure vs NOEL (Target > 100): herbicides, Table A, ratio of NOEL to estimated daily dose, 10 ppm in pool water, child 22 kg, 3 hours per day
Protocol: The herbicide preferably has a margin of exposure versus no observed effect level (“NOEL”) value of greater than 10, more preferably greater than 50, especially greater than 80, and more especially greater than 99. The margin of exposure versus NOEL is determined by estimating the total daily dose of the herbicide to a child in a swimming pool and determining the ratio of the NOEL to this. The total daily exposure may be estimated as follows. Oral exposure is estimated by assuming that the swimmer is in the water 3 hours per day, and that the swimmer ingests 50 milliliters of pool water per hour of swimming. It is also assumed that the herbicide will be present in the pool water at a concentration of 10 parts per million, equivalent to 10 milligrams per liter of pool water. The daily oral exposure is therefore estimated as the product of the swimming duration, the ingestion rate, and the concentration in the pool water. Dermal exposure is estimated by assuming the swimmer is in the water 3 hours per day, that the total body surface area, 8800 square centimeters, is immersed in the water, and that the herbicide permeates the skin at a rate, expressed in centimeters per hour, predicted by a model for skin permeation based on chemical structure, the Skinperm model, developed by W. F. ten Berge. A short description of the Skinperm model, can be accessed at: http://home.wxs.nl/˜wtberge/, which is incorporated herein by reference. The daily dermal exposure is then estimated as the product of the permeation rate, the concentration of the herbicide in the pool water (expressed in milligrams per cubic centimeter), the swimming duration, and the total body surface area. The total daily exposure is estimated as the sum of the daily oral and daily dermal exposure. The daily dose, expressed in milligrams per kilogram bodyweight per day, is then estimated as the total daily exposure divided by an assumed body weight of 22 kilograms.

[2] = agricultural fungicides, Table B
[3] = water, cited from earlier work
[4] = Protocol: The margin of exposure versus NOEL is determined by estimating the total daily dose of the herbicide to a child in a swimming pool and determining the ratio of the NOEL to this. The total daily exposure may be estimated as follows. Oral exposure is estimated by assuming that the swimmer is in the water 3 hours per day, and that the swimmer ingests 50 milliliters of pool water per hour of swimming. It is also assumed that the herbicide will be present in the pool water at a concentration of 10 parts per million, equivalent to 10 milligrams per liter of pool water. The daily oral exposure is therefore estimated as the product of the swimming duration, the ingestion rate, and the concentration in the pool water. Dermal exposure is estimated by assuming the swimmer is in the water 3 hours per day, that the total body surface area, 8800 square centimeters, is immersed in the water, and that the herbicide permeates the skin at a rate, expressed in centimeters per hour, predicted by a model for skin permeation based on chemical structure, the Skinperm model, developed by W. F. ten Berge. A short description of the Skinperm model, can be accessed at: http://home.wxs.nl/˜wtberge/, which is incorporated herein by reference. The daily dermal exposure is then estimated as the product of the permeation rate, the concentration of the herbicide in the pool water (expressed in milligrams per cubic centimeter), the swimming duration, and the total body surface area. The total daily exposure is estimated as the sum of the daily oral and daily dermal exposure. The daily dose, expressed in milligrams per kilogram bodyweight per day, is then estimated as the total daily exposure divided by an assumed body weight of 22 kilograms.
The margin of exposure versus RfD is determined by estimating the total daily dose of the herbicide to a child in a swimming pool, as described above, and determining the ratio of the RfD to this (i.e. margin of exposure/RfD).

[5] = test system: mustard algae; assay: Remedial laboratory study on algae, change in turbidity; conditions: for Change in Turbidity at active agent (ppm) five days post treatment: 5 ppm: 5 ppm active ingredient; for Change in Turbidity at active agent (ppm) five days post treatment: 5 ppm / Change in Turbidity at active agent (ppm) five days post treatment: 10 ppm: initial absorbance 0.10; for Change in Turbidity at active agent (ppm) five days post treatment: 10 ppm: 10 ppm active ingredient; for water turbidity: indicating killing of the mustard algae
[6] = test system: mustard algae; assay: Preventative laboratory study on algae, visual growth score; conditions: for Score @ ppm active agent: 0: 0 ppm; for Score @ ppm active agent: 0 / Score @ ppm active agent: 10 / Score @ ppm active agent: 15: 27° C.
[7] = agricultural fungicides, Table B
[8] = herbicides, Table A, 10 ppm in pool water, child 22 kg
[9] = 10 ppm, visual score 0 to 4, 10 days
[10] = 15 ppm, visual score 0 to 4, 10 days

SMILES	Margin of Exposure vs NOEL [1]	Margin of Exposure vs. RfD [2]	Margin of Exposure vs NOEL (Target > 100) [1]	Change in Turbidity at active agent (ppm) five days post treatment: 5 ppm ([5]; Table 2)	Change in Turbidity at active agent (ppm) five days post treatment: 10 ppm ([5]; Table 2)	comments (Remedial Algae Control) ([5]; Table 2)	other results
COCC(=O)N(c1c(C)cccc1C)C(C)C(=O)OC (racemic) [Metalaxyl, N-(2,6-dimethylphenyl)-N-(methoxyacetyl)-DL-alaninemethyl ester]	98	1	–	–	–	–	Solubility [3, 7]: 8400 mg/L (≈ 30100 µM)
CO/C=C(/C(=O)OC)c1ccccc1Oc1cc(Oc2ccccc2C#N)ncn1 [Azoxystrobin, Methyl (E)-2-2-6-(2-cyanophenoxy)pyrimidin-4-yloxyphenyl-3-methoxyacrylate]	240	2.4	–	–	–	–	Solubility [3, 7]: 10 mg/L (≈ 24.8 µM)
CC(C)N1C(=O)c2ccccc2NS1(=O)=O [Bentazon, 3-isopropyl-1H-2,1,3-benzothiadiazin-4(3H)-one 2,2-dioxide]	–	–	41	–	–	–	Margin of Exposure vs. RfD (Target > 1) [4, 8]: 0.4; Solubility ([3]; herbicides, Table A): 2300 mg/1
CC1=C(C(=O)Nc2ccccc2)SCCO1 [Carboxin, 5,6-dihydro-2-methyl-N-phenyl-1,4-oxathiin-3-carboxamide]	116	1.2	–	0.01	−0.01	algicidal activity	water turbidity ([5]; Table 2): decreased significantly
Nc1cnn(-c2ccccc2)c(=O)c1Cl [Chloridazon, 5-amino-4-chloro-2-phenyl-3(2H)-pyridazinone]	–	–	–	+0.15	+0.05	Algistatic. More	Solubility ([3]; herbicides, Table A): 340 mg/1
CC1(C)CON(Cc2ccccc2Cl)C1=O [Clomazone, 2-[(2-chlorophenyl)methyl]-4,4-dimethyl-3-isoxazolidinone]	–	–	41	+0.10	+0.10	–	Margin of Exposure vs. RfD (Target > 1) ([4]; human, 3 hours per day, 10 ppm): 0.02; Score @ ppm active agent: 0 ([6]; visual score 0 to 4, 10 days): 4; Score @ ppm active agent: 10 [6, 9]: 4; Score @ ppm active agent: 15 [6, 10]: 3; Comments (Preventive Algae Control) ([6]; Table 1): heavy growth
CCSC(=O)N(CC)C1CCCCC1 [Cycloate, S-ethyl cyclohexyl(ethyl)thiocarbamate]	1	0.001	–	0.00	−0.01	algicidal activity	water turbidity ([5]; Table 2): decreased significantly
CC(=O)O.CCCCCCCCCCCCNC(=N)N [Dodine, 1-dodecylguanidine acetate]	17	0.02	–	−0.03	−0.04	algicidal activity	water turbidity ([5]; Table 2): decreased significantly
CCCCc1c(C)nc(NCC)[nH]c1=O [Ethirimol, 5-butyl-2-ethylamino-6-methylpyrimidin-4-ol]	–	–	–	–	–	–	Solubility [3, 7]: 250 mg/L (≈ 1190 µM)
N#Cc1c[nH]cc1-c1cccc2c1OC(F)(F)O2 [Fludioxonil, 4-(2,2-difluoro-1,3-bezodioxol-4-yl)-1Hpyrrole-3-carbonitrile]	44	0.4	–	–	–	–	–
COC(=O)c1c(Cl)nn(C)c1S(=O)(=O)NC(=O)Nc1nc(OC)cc(OC)n1 [Halosulfuronmethyl, Methyl 5-{[(4,6-dimethoxy-2-pyrimidinyl)amino]carbonylaminosulfonyl}-3-chloro-1-methyl-1H-pyrazole-4-carboxylate]	–	–	133	–	–	–	Margin of Exposure vs. RfD (Target > 1) [4, 8]: 1.3; Solubility ([3]; herbicides, Table A): 15 mg/1
C=CCOC(Cn1ccnc1)c1ccc(Cl)cc1Cl (stereo not drawn) [Imazalil, 1-[2-(2,4-dichlorophenyl)-2-(2-propenyloxy)ethyl]-1H-imidazole]	17	0.2	–	–	–	–	Solubility [3, 7]: 1400 mg/L (≈ 4710 µM)
CCCOC(=O)NCCCN(C)C.Cl [Propamocarb, Propyl 3-(dimethylamino)propylcarbamate-hydrochloride]	438	1.4	–	–	–	–	–
CCC(=O)Nc1ccc(Cl)c(Cl)c1 [Propanil, N-(3,4-dichlorophenyl)propanamide]	–	–	67	−0.02	−0.03	algicidal activity	Margin of Exposure vs. RfD (Target > 1) [4, 8]: 0.1; water turbidity ([5]; Table 2): decreased significantly
CC(C)(C)C(O)(CCc1ccc(Cl)cc1)Cn1cncn1 (stereo not drawn) [Tebuconazole, H-1,2,4-triazole-1-ethanol-alpha-[2-(4-chlorophenyl)-ethyl]-alpha-(1,1-dimethylethyl)]	13	0.4	–	–	–	–	Turbidity @ 5 ppm active ingredient (Change in Turbidity at five days post treatment) ([5]; 5 ppm, Table 4): +0.09; Turbidity @ 10 ppm active ingredient (Change in Turbidity at five days post treatment) ([5]; 10 ppm, Table 4): +0.24; comments (Remedial Algae Control) ([5]; Table 4): more effective; Score @ 10 ppm ([6]; 10 ppm, visual score 0 to 4, 10 days, Table 3): 2; Score @ 15 ppm active ingredient ([6]; 15 ppm, visual score 0 to 4, 10 days, Table 3): 1; Comments (Preventive Algae Control) ([6]; Table 3, at 15 ppm): very little growth
Cc1[nH]c(=O)n(C(C)(C)C)c(=O)c1Cl [Terbacil, 3-tert-Butyl-5-chloro-6-methyluracil]	–	–	16	−0.02	−0.02	algicidal activity	Margin of Exposure vs. RfD (Target > 1) [4, 8]: 0.17; water turbidity ([5]; Table 2): decreased significantly; Score @ ppm active agent: 0 ([6]; visual score 0 to 4, 10 days): 0; Score @ ppm active agent: 10 [6, 9]: 0; Score @ ppm active agent: 15 [6, 10]: 0
COC(=O)c1cccc(C)c1S(=O)(=O)NC(=O)Nc1nc(OCC(F)(F)F)nc(N(C)C)n1 [Triflusulfuronmethyl]	–	–	33	+0.04	+0.03	Algistatic.	Solubility ([3]; herbicides, Table A): 110-11000 mg/1

Source: patent US6710017B2, “Compositions and methods for controlling algae in recirculating water systems” (Avecia, Inc., priority 2000, dated 2004)
